Data on one compound can be found in US6355464B1, “M. tuberculosis RNA polymerase alpha subunit” (Anadys Pharmaceuticals, Inc., priority 1996, dated 2002).

SMILES strings stand for the structures.

The target in the experiment is M. tuberculosis RNA polymerase (Mycobacterium tuberculosis, UniProt P9WGY7+P9WGY9+P9WGZ1). The experiment can be described thus: In vitro (cell-free) high-throughput transcription screen with reconstituted RNA polymerase and T101 promoter template. It is filed as biochemical. The conditions noted are these: rifampicin at 30 nM; control compound; TCA-precipitated [α-32P]-UTP-labelled RNA, 30 min at 25° C. The procedure: High-throughput screens for anti-tuberculosis agents may be performed using either an in vitro or in vivo format. In either case, the ability of test compounds to inhibit M. tuberculosis RNA polymerase-driven transcription of M. tuberculosis promoters is tested. Typically, a strong promoter such as T101 is used for the test reactions. The sequence of the T101 promoter is: identified by SEQ. ID. NO. 15 and read as follows.
M. tuberculosis RNA polymerase, sequence (P9WGY7 whole entry, looked up): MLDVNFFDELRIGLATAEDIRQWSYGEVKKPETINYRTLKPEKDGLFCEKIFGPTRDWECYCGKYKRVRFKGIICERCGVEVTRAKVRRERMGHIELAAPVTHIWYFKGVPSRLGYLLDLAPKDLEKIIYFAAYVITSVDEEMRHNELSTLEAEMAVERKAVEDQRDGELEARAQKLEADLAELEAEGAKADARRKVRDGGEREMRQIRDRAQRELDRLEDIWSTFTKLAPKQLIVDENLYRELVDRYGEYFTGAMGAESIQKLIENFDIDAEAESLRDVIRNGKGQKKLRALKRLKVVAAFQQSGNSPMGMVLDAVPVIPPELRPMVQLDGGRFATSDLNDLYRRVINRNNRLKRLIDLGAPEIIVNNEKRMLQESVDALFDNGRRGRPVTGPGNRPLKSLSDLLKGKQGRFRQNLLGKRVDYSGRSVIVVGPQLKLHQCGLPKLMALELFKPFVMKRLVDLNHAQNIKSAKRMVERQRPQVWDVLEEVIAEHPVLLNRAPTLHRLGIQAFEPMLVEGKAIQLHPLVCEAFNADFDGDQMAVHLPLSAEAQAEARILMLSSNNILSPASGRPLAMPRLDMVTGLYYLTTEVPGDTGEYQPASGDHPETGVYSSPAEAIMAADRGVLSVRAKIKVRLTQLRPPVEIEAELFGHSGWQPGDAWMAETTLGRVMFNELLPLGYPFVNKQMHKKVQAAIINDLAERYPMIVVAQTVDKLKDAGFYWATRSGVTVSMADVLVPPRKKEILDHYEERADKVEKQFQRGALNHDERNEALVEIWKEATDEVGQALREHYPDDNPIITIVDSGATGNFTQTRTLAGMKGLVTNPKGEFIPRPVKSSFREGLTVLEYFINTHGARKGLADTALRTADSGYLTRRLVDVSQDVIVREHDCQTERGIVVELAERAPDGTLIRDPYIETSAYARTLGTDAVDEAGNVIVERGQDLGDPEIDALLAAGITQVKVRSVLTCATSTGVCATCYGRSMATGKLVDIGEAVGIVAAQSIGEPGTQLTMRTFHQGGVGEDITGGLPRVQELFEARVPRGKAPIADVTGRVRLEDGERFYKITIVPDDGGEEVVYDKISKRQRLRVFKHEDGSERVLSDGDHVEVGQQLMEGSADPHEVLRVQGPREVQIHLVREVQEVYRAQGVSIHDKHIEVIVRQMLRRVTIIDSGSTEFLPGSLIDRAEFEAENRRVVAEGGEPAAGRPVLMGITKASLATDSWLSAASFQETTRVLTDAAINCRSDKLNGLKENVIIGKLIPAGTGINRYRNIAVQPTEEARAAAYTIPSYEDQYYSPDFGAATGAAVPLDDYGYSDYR
M. tuberculosis RNA polymerase, sequence (P9WGY9 whole entry, looked up): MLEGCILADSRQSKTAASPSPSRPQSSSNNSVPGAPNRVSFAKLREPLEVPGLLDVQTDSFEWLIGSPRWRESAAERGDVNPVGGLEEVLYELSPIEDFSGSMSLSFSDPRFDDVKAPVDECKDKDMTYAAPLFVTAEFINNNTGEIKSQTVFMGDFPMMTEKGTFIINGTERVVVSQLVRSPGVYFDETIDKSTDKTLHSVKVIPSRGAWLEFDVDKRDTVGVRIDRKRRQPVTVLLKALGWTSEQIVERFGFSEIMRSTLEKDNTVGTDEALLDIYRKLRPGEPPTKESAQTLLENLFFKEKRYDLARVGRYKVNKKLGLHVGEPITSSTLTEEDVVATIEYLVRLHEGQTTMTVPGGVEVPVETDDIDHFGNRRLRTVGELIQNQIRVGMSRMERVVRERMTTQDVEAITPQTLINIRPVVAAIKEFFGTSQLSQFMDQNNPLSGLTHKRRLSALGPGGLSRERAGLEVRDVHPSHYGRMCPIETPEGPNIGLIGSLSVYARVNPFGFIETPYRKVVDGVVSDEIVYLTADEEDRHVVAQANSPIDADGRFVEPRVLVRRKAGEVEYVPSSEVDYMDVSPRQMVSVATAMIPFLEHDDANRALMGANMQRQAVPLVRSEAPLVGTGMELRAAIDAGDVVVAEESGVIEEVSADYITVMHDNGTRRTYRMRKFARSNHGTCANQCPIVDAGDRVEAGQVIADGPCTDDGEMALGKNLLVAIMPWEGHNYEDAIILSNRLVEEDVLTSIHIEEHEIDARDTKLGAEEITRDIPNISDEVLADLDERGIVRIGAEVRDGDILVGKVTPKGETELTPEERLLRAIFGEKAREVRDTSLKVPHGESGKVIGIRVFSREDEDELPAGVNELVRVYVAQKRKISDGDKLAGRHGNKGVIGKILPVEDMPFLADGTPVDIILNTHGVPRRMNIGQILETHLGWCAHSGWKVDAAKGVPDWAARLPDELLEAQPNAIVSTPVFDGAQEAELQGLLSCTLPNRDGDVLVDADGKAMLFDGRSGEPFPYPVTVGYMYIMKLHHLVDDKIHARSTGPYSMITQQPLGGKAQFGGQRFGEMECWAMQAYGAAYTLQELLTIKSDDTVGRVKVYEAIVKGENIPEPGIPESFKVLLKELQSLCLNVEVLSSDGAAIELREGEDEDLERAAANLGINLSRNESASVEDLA
M. tuberculosis RNA polymerase, sequence (P9WGZ1 whole entry, looked up): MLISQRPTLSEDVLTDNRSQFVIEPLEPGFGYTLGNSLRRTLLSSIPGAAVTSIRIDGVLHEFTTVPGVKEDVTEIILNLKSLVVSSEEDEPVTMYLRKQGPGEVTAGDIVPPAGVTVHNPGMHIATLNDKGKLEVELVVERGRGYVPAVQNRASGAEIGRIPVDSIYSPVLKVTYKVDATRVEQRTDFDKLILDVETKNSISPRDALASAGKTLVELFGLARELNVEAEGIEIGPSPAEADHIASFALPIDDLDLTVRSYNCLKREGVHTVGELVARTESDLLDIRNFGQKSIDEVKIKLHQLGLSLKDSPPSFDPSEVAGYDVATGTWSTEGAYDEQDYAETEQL
The following procedure is used for cell-free high-throughput screening. A Tomtec Quadra 96-well pipetting station is used to add the reaction components to polypropylene 96-well dishes. 5 μl aliquots of test compounds dissolved in DMSO (or DMSO alone as a control) are added to wells. This is followed by 20 μl of the RNA polymerase mixture, which consists of: 10 mM DTT, 200 mM KCl, 10 mM Mg^+2, 1.5 μM bovine serum albumin, and 0.25 μg reconstituted RNA polymerase. […]
After incubation for 30 min at 25° C., the reaction is stopped by addition of 150 μl 10% trichloroacetic acid (TCA). […] The wells of the microtiter plate and the filter are washed twice with 5% TCA and bound radioactivity is determined usinjg a Wallac microbeta 1450 scintillation counter. Inhibitory activity due to the test compound is calculated according to the formula: [formula] […]

Turning to `CO[C@H]1/C=C/O[C@@]2(C)Oc3c(C)c(O)c4c(O)c(c(/C=N/N5CCN(C)CC5)c(O)c4c3C2=O)NC(=O)/C(C)=C\C=C\[C@H](C)[C@H](O)[C@@H](C)[C@@H](O)[C@@H](C)[C@H](OC(C)=O)[C@@H]1C` [rifampicin], the inhibition of transcription is given as 50-75%.
